Tests used:
[1] = tested on: renal fibroblast; details: Ponnusamy et al., 2015; cited from earlier work
[2] = tested on: human spermatozoa; test: Sperm viability by eosin-nigrosin staining; type: cell-based; details: 6 hours, capacitating conditions
Procedure: For sperm preparation, semen samples were collected by masturbation into sterile cups after 2-4 days of sexual abstinence. Samples were left to liquefy for up 2 hours at 37° C. to complete liquefaction prior to processing as described below. Only ejaculates whose semen parameters (total fluid volume, sperm concentration, motility and morphology) meet the (2010) normality criteria established by the WHO (2010) were processed. Ejaculates were submitted to discontinuous gradient centrifugation (Sperm Wash Gradient Set (45% and 90%)) for 20 min at 300 g at room temperature. […] The pellet was then resuspended in 1 mL of non-capacitating (NC) media and sperm concentration was determined using a Neubauer counting chamber under an optical microscope (×100 magnification). Due to the low number of spermatozoa obtained in each ejaculate, different ejaculates were pooled for different assessments. Finally, depending on experimental design spermatozoa were diluted in 1 ml of capacitating (CAP media containing 26 mg/mL of BSA and 25 mM of bicarbonate) or NC at a final concentration of 20×10^6/ml for 6 hours at 37° C. in presence or absence of the activator. […]
For determination of sperm viability, the instructions by the WHO (2010) were followed, sperm viability was assessed by eosin-nigrosin staining technique. […] A total of 200 spermatozoa were counted in random fields under a bright-field microscope. […]

[3] = tested on: human spermatozoa; test: Protein tyrosine phosphorylation (sperm capacitation hallmark) by anti-phosphotyrosine western blot; type: cell-based
Procedure: For sperm incubations Biggers-Whitten-Whittingham (BWW) media described by Biggers J D et al. (1971) with slightly modifications was used. BBW-washed (BWW-W): 94.5 mM NaCl, 4.8 mM KCl, 1.7 mM CaCl2×2H2O, 1.17 mM KH2PO4, 1.22 mM MgSO4×7H2O, 20 mM HEPES. Non capacitation media (NC) contains all the component of BWW-washed plus 5.56 mM glucose and gentamycin 10 mg/mL. Capacitating media (CAP): contains all the component of NC plus 25 mM of HCO3 and 26 mg of Bovine Serum Albumin (BSA). All the media were balanced to a final pH 7.2-7.4
For sperm preparation, semen samples were collected by masturbation into sterile cups after 2-4 days of sexual abstinence. Samples were left to liquefy for up 2 hours at 37° C. to complete liquefaction prior to processing as described below. Only ejaculates whose semen parameters (total fluid volume, sperm concentration, motility and morphology) meet the (2010) normality criteria established by the WHO (2010) were processed. Ejaculates were submitted to discontinuous gradient centrifugation (Sperm Wash Gradient Set (45% and 90%)) for 20 min at 300 g at room temperature. […] The pellet was then resuspended in 1 mL of non-capacitating (NC) media and sperm concentration was determined using a Neubauer counting chamber under an optical microscope (×100 magnification). Due to the low number of spermatozoa obtained in each ejaculate, different ejaculates were pooled for different assessments. Finally, depending on experimental design spermatozoa were diluted in 1 ml of capacitating (CAP media containing 26 mg/mL of BSA and 25 mM of bicarbonate) or NC at a final concentration of 20×10^6/ml for 6 hours at 37° C. in presence or absence of the activator. YK-3-237 was added at the referred concentration at time 0 of incubation and keep along the time of sperm incubation.
For the Western blot analysis, spermatozoa were washed twice in phosphate-buffered saline (PBS) by centrifugation at 5000 g for 3 min at room temperature. The pellet was resuspended in 2×Laemmli sample buffer and incubated over night at 4° C. The samples were then centrifuged again (10000 g, 15 min, 4° C.) and the protein concentration was measured using a Bio-Rad DC Protein Assay. […] The phosphorylation state of the sperm proteins was analysed by overnight incubation at 4° C. with an anti-phosphotyrosine monoclonal antibody (mAb; Clone 4G10, Millipore; diluted 1:3000, v/v, in Tris-buffered saline-Tween 20 solution (TBST) containing 3% milk). The levels of sperm lipid peroxidation was evaluated by overnight incubation at 4° C. with an anti-4-hydroxynonenal (4HNE) antibody (pAb; Millipore; diluted 1:3000, v/v, in Tris-buffered saline-Tween 20 solution (TBST) containing 3% BSA. Membranes incubated with anti-phosphotyrosine were incubated for 60 min at room temperature with a horseradish peroxidase (HRP)-conjugated secondary anti-mouse antibody (diluted 1:5000, v/v, in TBST containing or 3% milk). Membranes incubated with anti-4HNE were incubated for 60 min at room temperature with a horseradish peroxidase (HRP)-conjugated secondary anti-goat antibody (diluted 1:5000, v/v, in TBST containing or 3% BSA). […]
Membranes' fluorescence was read with the BioRad FX-Pro-plus (Bio-Rad, Hemel Hempstead, UK). […] Western blotting regions of interest (ROIs) used for quantification are indicated by a vertical bar on the right of the respective western blot. […]

[4] = tested on: breast cancer cells; details: Yi et al., 2013; cited from earlier work

COc1ccc(/C=C/C(=O)c2cc(OC)c(OC)c(OC)c2)cc1B(O)O [YK-3-237, B-[2-methoxy-5-[(1E)-3-oxo-3-(3,4,5-trimethoxyphenyl)-1-propen-1-yl]phenyl]-boronic acid]
effect on renal fibroblast and renal fibrogenesis [1]: promotes renal fibroblast activation and aggravates renal fibrogenesis
effect on sperm viability ([2]; 10 μM): did not affect sperm viability
effect on sperm viability, all concentrations tested ([2]; 37° C., different concentrations): none of the concentration tested had detrimental effect
tyrosine phosphorylation levels, co-incubation in presence of bicarbonate ([3]; 10 μM, 6 hours, bicarbonate present): increases the tyrosine phosphorylation levels
tyrosine phosphorylation levels, complete capacitating media containing bicarbonate and BSA ([3]; 10 μM, 6 hours, compared with bicarbonate alone): further improved
tyrosine phosphorylation levels in comparison with control ([3]; 6 hours co-incubation, capacitating media (HCO3 25 mM, BSA 26 mg/mL), 37° C., vs control 6 hours): tripled
best concentration which enhanced tyrosine phosphorylation levels ([3]; 6 hours incubation in capacitating conditions (bicarbonate and BSA)): 10 µM
increase of tyrosine phosphorylation levels ([3]; human sperm, capacitating conditions, FIGS. 1A, 2A and 3A): up to 3 folds
effect on breast cancer cells [4]: antiproliferative effect
